According to paper PMC7179198, “Chiral Pyridine-3,5-bis- (L-phenylalaninyl-L-leucinyl) Schiff Base Peptides as Potential Anticancer Agents: Design, Synthesis, and Molecular Docking Studies Targeting Lactate Dehydrogenase-A” (Molecules, 2020):

Columns and labels:
[1] = system: MCF-7 xenografts; test: In vivo human breast cancer xenograft; set-up: species or system nude mice; details: MCF-7 xenograft, eight days of treatment
From the text: In this section, we developed a breast cancer animal xenograft model for the evaluation of thein vivo anticancer potential of our newly prepared compounds. […] After wards, the noticeable effects were more or less constant up to 14 days of treatment. […] Our results are in good agreement with those previously published on the in vivo anticancer potential of Schiff bases owing to apoptosis induction.
The breast cancer xenograft model protocol was approved by the Institutional Animal Use and Care Committee of the University of Alabama at Birmingham (50-01-05-08B). Female athymic pathogen-free nude mice (nu/nu, 4–6 weeks) were used. Firstly, MCF-7 xenografts were initiated by implanting pellets slowly releasing estrogen for two months (1.7mg 17β-estradiol/pellet) subcutaneously in the female nude mice. After 24 h, confluent MCF-7 cells were harvested, washed two times with serum-free medium, re-suspended, and injected subcutaneously (s.c.) (5 × 10^6 cells, total volume 0.2 mL) into the left inguinal area of the mice. Caliper measurement was used to measure tumor growth in two perpendicular diameters of the implant after 48 h, and its volume was determined. Mice grafted with MCF-7 were divided into different groups (7–10 mice/group). Untreated mice received the solvent only. Treated groups received different prepared derivatives as previously described.

[2] = target: T1, recombinant human LDHA protein (Homo sapiens, UniProt P00338); test: LDHA inhibition assay (colorimetric NADH kit); format: biochemical
T1 construct: purchased Abcam ab93699
Description: The newly synthesized compounds 4–6 were evaluated for their ability to inhibit LDHA in comparison with galloflavin as a known isoform nonselective LDHA inhibitor [44, 45]. The choice of galloflavin as a reference was based on the fact that it is potent anticancer agent and commercially available.
Lactate dehydrogenase assay kit (Abcam, ab102526) and recombinant human LDHA protein (Abcam, ab93699) were used to assess the inhibitory effect of the tested compounds. First, we generated an NADH standard curve for colorimetric detection by measuring the OD (450 nm) at different molar amounts of NADH. The linear regression equation of the curve was derivatized in Graphpad Prism. Tested compounds were dissolved in DMSO and their inhibitory activity was assessed at 140 and 300 μM strength. Galloflavin (Sigma, SML0776) at the same molar concentration was used as a known LDH inhibitor. The master reaction mix composed of LDH assay buffer and 10 ng human LDHA […] per reaction was prepared. Tested compounds were added and the final reaction volume was adjusted to 50 μL. Absorbance at 450 nm was taken after 2–3 min (T-initial) and continued every minute for 118 min (T-final). The change in measurement over time (delta A450) was calculated as T-final minus T-initial. The amount of NADH generated by the assay between T-initial and T-final was deduced by comparing the A450 of each sample to the standard NADH standard curve. LDHA activity was calculated in milliunits per mL as the amount of NADH generated by the assay / (reaction time in minutes (118) x reaction volume in mL ([…]).

Compound: CC(=NNC(=O)C(CC(C)C)NC(=O)C(Cc1ccccc1)NC(=O)c1cncc(C(=O)NC(Cc2ccccc2)C(=O)NC(CC(C)C)C(=O)NN=C(C)c2ccc([N+](=O)[O-])cc2)c1)c1ccc([N+](=O)[O-])cc1 (stereo not drawn) [5e, N^3,N^5-Bis{1-[(4-methyl-1-(2-(1-(4-nitrophenyl)ethylidene)hydrazinyl)-1-oxopentan-2-yl)-amino]-1-oxo-3-phenylpropan-2-yl}pyridine-3,5-dicarboxamide]
- decrease in tumor growth [1]: 74.2%
- IC50 ([2]; recombinant human LDHA): 141.6 ± 0.98 µM
- fold increase in LDHA inhibitory activity compared with galloflavin ([2]; vs galloflavin): ~1.14 fold
